# Experimental data: US9834525B2, “Inhibitors of paxillin function and related compositions and methods” (UNIVERSITY OF TENNESSEE RESEARCH FOUNDATION, priority 2015, dated 2017)
# Entries after “also recorded” stand apart in the source; their conditions may differ.
# What was measured:
# [1] = tested on: retinal endothelial cells (REC); test: Annexin V/PI apoptosis analysis by flow cytometry in REC; format: cell-based, human
# Method: Harvested cells were washed twice with cold PBS/2% FBS. Pelleted cells were resuspended in Annexin V Binding Buffer (BioLegend, San Diego, Calif.) at a concentration of 5.0×10^6 cells/mL following manufacturer's instructions. 5.0×10^5 cells (100 μL) were labeled with 5 μL of FITC Annexin V and 10 μL of Propidium Iodide (PI) solution. Cells were vortexed gently and incubated for 15 minutes at RT in dark. 300 μL of Annexin V Binding Buffer were added to each sample tube and analyzed in BD LSRII Flow Cytometry Analyzer (BD Biosciences, San Jose, Calif.). Apoptotic cells were defined as Annexin V^+PI^neg while necrotic cells are defined as Annexin V^+PI^+. […]
# To investigate the potential of compound (II-4) affecting the proliferative capacity of RECs treated with VEGF, proliferation was measured using the metabolic assay based on the tetrazolium salt, WST-1. […] Cells were harvested and apoptosis measured with Annexin-V/Propidium Iodide (PI) staining and analyzed using flow cytometry.
# FIG. 18: REC Proliferation and Flow cytometry analysis of apoptosis in REC. A) VEGF-induced cellular proliferation was assessed using the WST-1 metabolic assay. […] B) Apoptosis was measured using Annexin V/PI staining Compound (II-4) (1 μM) appears to be non-cytotoxic to retinal endothelial cells after 24 hour incubation (n≈10,000 cells).
# AKT (Ser473) = test: Western blot of VEGF-induced AKT phosphorylation in REC; format: cell-based, human; settings: REC under VEGF; compound (II-4) 500 nM, SU6656 1 μM
# Method: REC, Mel 270, OMM 2.5 under Hepatocyte Growth Factor (HGF) or Vascular Endothelial Growth Factor (VEGF) stimulation conditions: Cell lysates were collected in RIPA lysis buffer (50 mM Tris-HCl, pH 7.4, 150 mM NaCl, 2 mM EDTA, 1% Nonidet P-40, 0.1% SDS) with protease 1× inhibitor cocktail (Roche; Indianapolis, Ind.). Lysates were kept on ice and centrifuged at 10,000×g×10 minutes and total protein was measured using the BCA assay (Pierce, Rockford, Ill.). Protein samples were mixed with 4×LDS loading buffer with 2.5% 2-mercaptoethanol (Sigma-Aldrich), heated to 70° C. for 10 minutes, and loaded on NuPAGE 4-12% Bis-Tris gel (Invitrogen, Carlsbad, Calif.). Immunoblotting was performed with nitrocellulose membranes (Bio-Rad, Hercules, Calif.) at 170-mA start and 110-mA end at 25 V for two hours in NuPAGE transfer buffer (Invitrogen) containing 20% methanol. Membranes were blocked using Odyssey blocking buffer (LI-COR; Lincoln, Nebr.) for one hour at room temperature with gentle shaking Membranes were then incubated at 4° C. with specific primary antibodies (1:1000) overnight. Cellular protein was normalized using rabbit-GAPDH or mouse-α-Tubulin [1:20,000] (Cell Signaling, Danvers, Mass.; LI-COR, respectively). […] Dual-channel infrared scan and quantitation of immunoblots were conducted using the ODYSSEY Sa infrared imaging system with Image Studio (Ver. 3.1.4) (LI-COR). […]
compound,measurement,setting,value
COc1cc(C2OC(=O)Nc3c2ccc2ccccc32)cc(OC)c1OC (stereo not drawn) [compound II-4],spontaneous apoptosis in REC (PI and Annexin V),[1]; 1 μM for 4-hrs,did not cause an increase in spontaneous apoptosis
same,apoptosis / cytotoxicity in REC (Annexin-V/PI),[1]; 1 μM for 24 hours,No evidence of apoptosis was detected; also recorded: non-cytotoxic
same,VEGF-induced activation of AKT (P-AKT Ser473),AKT (Ser473),able to prevent; also recorded: reduced
